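These data come from cells grown in 96-well plates and exposed to compound for 48 hours at five concentrations. At the TGI there is no net growth.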

Here are results for eleven molecules from PubChem BioAssay (NCI).

Test in all cases: inhibition of tumour cell growth, NCI panel, 48 h
Assay [1] relates to MDA-MB-435.
The subject of assay [2] is RXF 393 renal.
Assay [3] has as its system NCI-H23 lung.
Assay [4] concerns SK-OV-3 ovarian.
Assay [5] concerns OVCAR-3 ovarian.
The test system of assay [6] is RPMI-8226 leukemia.
Assay [7] has as its system TK-10 renal.
The test system of assay [8] is BT-549 breast.
Assay [9] concerns SF-539 CNS.
The subject of assay [10] is SK-MEL-2 melanoma.
Assay [11] relates to SW-620 colon.
Assay [12] has as its system CAKI-1 renal.
The test system of assay [13] is NCI/ADR-RES ovarian.
For assay [14], the system named is MALME-3M melanoma.
Assay [15] deals with OVCAR-4 ovarian.
Assay [16] concerns MDA-N.

With `O=C(OC(=C(c1ccccc1)c1ccccc1)N1CCCC1=S)C(c1ccccc1)c1ccccc1`, the TGI in assay [1], in [2], in assay [3], in [4], in assay [5] and in [6] was > 10 µM throughout. In addition, the TGI in assay [7], in [8], in [9], in assay [10], in [11] and in assay [12] was > 10 µM each time. Moreover, the TGI in [13], in assay [14] and in [15] was > 10 µM in each case.

Regarding `CC(C)NCC(O)c1ccc(OCc2ccccc2)c(OCc2ccccc2)c1-c1ccccc1` (configuration not stated), the TGI in assay [2] was > 100 µM; in assay [4], 3.16 µM; in assay [5] it was 3.22 µM; in assay [16], 3.1 µM; in assay [7], 3.9 µM; in assay [9] it was 2.98 µM. Also, the TGI in [10] came to 4.18 µM; in assay [11], 3.13 µM; in [12], 3.18 µM; in assay [13] it was 3.73 µM; in assay [14] it was 3.16 µM; in assay [15] it was 3.79 µM.

Take `Clc1c(Cl)c2c(Cl)c(Cl)c1C[P+](c1ccccc1)(c1ccccc1)CC[P+](c1ccccc1)(c1ccccc1)Cc1c(Cl)c(Cl)c(c(Cl)c1Cl)C[P+](c1ccccc1)(c1ccccc1)CC[P+](c1ccccc1)(c1ccccc1)C2`: the TGI was 10.9 µM in assay [2]; 5.25 µM in assay [3]; 21.7 µM in assay [4]; 8.97 µM in assay [5]; 4.78 µM in assay [6]; 9.41 µM in assay [7]. Moreover, the TGI in [9] stood at 16.2 µM; in assay [10] it was 6.09 µM; in assay [11], 13.6 µM; in [12], 33.1 µM; in assay [14] it was 7 µM; in assay [15], 8.59 µM.

Turning to `COc1ccc2oc(C(=O)N3CC(CCl)c4ccc([N+](=O)[O-])cc43)cc2c1` (configuration not stated), the TGI in [1] was > 100 µM; in assay [2], 34 µM; in assay [3], > 100 µM; in assay [4], 48.7 µM; in assay [6], > 100 µM; in [7], > 100 µM. For the same molecule, the TGI in assay [8] was > 100 µM; in assay [9], > 100 µM; in [10] it was > 100 µM; in assay [11] it was > 100 µM; in assay [12], 45.6 µM; in assay [13] it was > 100 µM. In [15], the TGI is > 100 µM.

On to `CC(NC(=O)OC(C)(C)C)C(=O)C(N)=O` (configuration not stated), for which the TGI in assay [1], in assay [3], in [4], in [16], in assay [6] and in assay [7] was > 100 µM throughout. The TGI in [9], in [10], in assay [11] and in [13] was > 100 µM in each case.

On to `CC(C)OP(=O)(OC(C)C)C(=Nc1ccccc1)NNc1ccc([N+](=O)[O-])cc1`, for which the TGI is > 100 µM in assay [3]; > 100 µM in assay [5]; 70.4 µM in assay [6]; 46.2 µM in assay [7]; > 100 µM in [9]; > 100 µM in assay [10]. For the same molecule, the TGI was > 100 µM in assay [11], > 100 µM in [12], 50 µM in assay [14] and > 100 µM in assay [15].

Regarding `CC(CO)C1=CC(C#CCOCc2ccccc2)N(C(=O)Oc2ccccc2)c2ccccc21` (configuration not stated), the TGI in assay [1] was 47.9 µM; in assay [2], 23 µM; in assay [3] it was 39.8 µM; in [4] it was > 100 µM; in assay [5], 88.2 µM; in [16], > 100 µM. Moreover, the TGI is > 100 µM in assay [6]; > 100 µM in [7]; > 100 µM in [9]; > 100 µM in assay [10]; > 100 µM in [11]; 76.1 µM in [12]. Moreover, the TGI in assay [13] was 63.3 µM; in assay [15], 20.7 µM.

Turning to `CCOC(=O)NC(NC(C)CC)(C(F)(F)F)C(F)(F)F` (configuration not stated), the TGI in assay [1], in assay [2], in assay [3], in assay [5], in [16] and in [6] was > 100 µM throughout. Further, the TGI in assay [7], in [9], in assay [10], in [11], in [12] and in assay [13] was > 100 µM each time. For the same molecule, the TGI in assay [14] and in [15] was > 100 µM throughout.

Consider `COc1nc2sc3c(c2c(=O)n1CCCSSCCCn1c(OC)nc2sc4c(c2c1=O)CCCC4)CCCC3`, for which the TGI in assay [1], in assay [2], in [3], in assay [4], in assay [16] and in [6] was > 100 µM in each case. Besides, the TGI in [7], in assay [9], in assay [10], in assay [12], in assay [13] and in assay [14] was > 100 µM each time. Besides, the TGI in [15] was > 100 µM.

`N/N=C1/CCCc2nonc21`: the TGI in [1], in [2], in assay [3], in assay [4], in [5] and in assay [16] was > 100 µM throughout. Further, the TGI in assay [6], in assay [7], in [9], in assay [10], in assay [11] and in assay [12] was > 100 µM each time. Further, the TGI in [13], in assay [14] and in assay [15] was > 100 µM in each case.

`O=S(CCCl)c1c2ccccc2nc2ccccc12` (configuration not stated): the TGI in [1], in [2], in assay [3], in [4], in assay [5] and in assay [16] was > 100 µM each time. Besides, the TGI in assay [7] was > 100 µM; in assay [9], > 100 µM; in assay [10], > 100 µM; in assay [11], > 100 µM; in assay [12], 80.5 µM; in assay [13] it was > 100 µM. Also, the TGI in assay [14] and in assay [15] was > 100 µM each time.
